Data reported in patent publication US9920010B2, “CXCR7 receptor modulators” (IDORSIA PHARMACEUTICALS LTD, priority 2013, dated 2018).

Target: T1, CXCR7 (Homo sapiens, UniProt P25106)
T1 construct: host or cells: CHO-K1 (PathHunter CHO-K1 CXCR7 b-arrestin cell line, stably transfected)
Test: PathHunter CHO-K1 CXCR7 b-arrestin recruitment assay (CXCR7 agonistic activity)
Assay type: cell-based
Conditions: PathHunter CHO-K1 CXCR7 b-arrestin cell line
Method: The CXCl12 receptor and CXCR7 agonistic activities of the compounds of formula (I) are determined in accordance with the following experimental method.
The assay is using the PathHunter™ CHO-K1 CXCR7 b-arrestin cell line from DiscoverX. The system is based on the Enzyme Fragment Complementation Technology. Two complementing fragments of the b-galactosidase enzyme are expressed within stably transfected cells. The larger portion of b-gal, termed EA for Enzyme Acceptor, is fused to the C-terminus of b-arrestin 2. The smaller fragment, termed ProLink™ tag, is fused to CXCR7 at the C-terminus. Upon activation, b-arrestin is recruited which forces the interaction of ProLink and EA, allowing complementation of the two fragments of b-gal and the formation of a functional enzyme which is capable of hydrolysing the substrate and generating a chemiluminescent signal.
CHO-K1 CXCR7 b-arrestin cells are detached from culture dishes with a cell dissociation buffer (Invitrogen, #13151-014) and collected in growing medium (F12 HAMS 90% (v/v)/FCS 10% (v/v), Penicillin/streptomycin 1% (v/v)). 5000 cells per well (in 20 μl) are seeded in a 384 well plate (white-walled, clear bottom; BD Falcon #353274). The plate is incubated at 37° C./5% CO2 for 24 hours. Medium is then replaced by 20 μl OPTIMEM (Invitrogen #31985) for 3 to 4 hours. Test compounds are dissolved at 10 mM in DMSO and serially diluted in DMSO to 200× of the final concentration for dose response curves. Compounds are then diluted 1:33.3 in HBSS1×. 5 μl/well of HBSS1×/20 mM HEPES/0.2% BSA are added to the assay plate followed by addition of 5 μl/well of diluted compounds. CXCL12 (Peprotech #300-28A) may be used as a reference agonist. The plate is incubated for 90 minutes at 37° C. 12 μl of detection reagent (Path Hunter Detection Kit, DiscoveRx, #93-0001) is transferred to the assay plate and to the plate is incubated for 1 hour at room temperature. Luminescent signal is read in a microplate reader (FLUOstar Optima, bmg). The calculated EC50 values may fluctuate depending on the daily cellular assay performance. Fluctuations of this kind are known to those skilled in the art. Average EC50 values from several measurements are given as geometric mean values.

T1 sequence (P25106 whole entry): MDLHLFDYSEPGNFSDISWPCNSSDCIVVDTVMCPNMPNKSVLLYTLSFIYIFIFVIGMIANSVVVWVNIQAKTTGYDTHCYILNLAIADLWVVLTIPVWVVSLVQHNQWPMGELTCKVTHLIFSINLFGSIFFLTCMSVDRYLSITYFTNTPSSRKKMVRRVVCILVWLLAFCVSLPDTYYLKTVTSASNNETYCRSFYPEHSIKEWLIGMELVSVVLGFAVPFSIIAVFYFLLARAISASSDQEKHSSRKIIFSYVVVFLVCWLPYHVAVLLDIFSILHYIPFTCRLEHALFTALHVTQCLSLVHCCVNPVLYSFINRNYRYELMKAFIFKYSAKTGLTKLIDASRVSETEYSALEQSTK
T1 sequence (P32121 whole entry partner): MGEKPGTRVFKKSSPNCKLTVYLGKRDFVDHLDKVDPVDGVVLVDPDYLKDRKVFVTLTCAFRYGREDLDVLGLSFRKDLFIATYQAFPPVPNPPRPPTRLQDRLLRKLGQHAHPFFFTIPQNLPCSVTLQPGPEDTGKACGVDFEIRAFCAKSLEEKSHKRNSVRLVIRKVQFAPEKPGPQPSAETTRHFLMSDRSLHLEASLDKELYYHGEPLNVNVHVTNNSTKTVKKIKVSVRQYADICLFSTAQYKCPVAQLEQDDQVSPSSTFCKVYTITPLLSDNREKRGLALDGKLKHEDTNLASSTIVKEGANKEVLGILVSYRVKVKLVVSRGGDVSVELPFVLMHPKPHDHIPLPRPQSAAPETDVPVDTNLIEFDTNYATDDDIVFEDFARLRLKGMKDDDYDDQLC

| Structure (SMILES) | EC50 [µM] |
| --- | --- |
| CCC(=O)N1CCc2c(cccc2NCC(=O)N(CCC2CCCN2C)Cc2ccccc2)C1 (racemic) [Example 32, rac-N-Benzyl-N-[2-(1-methyl-pyrrolidin-2-yl)-ethyl]-2-(2-propionyl-1,2,3,4-tetrahydro-isoquinolin-5-ylamino)-acetamide] | 0.028 |
| CCN1CCc2cccc(NCC(=O)N(CCN(C)C)Cc3ccc(F)cc3)c2C1 [compound 504] | 0.093 |
| CN(C)CCN(Cc1ccccc1)C(=O)CNc1cccc2c1CCN(CC1CCCCC1)C2 [compound 124] | 0.052 |
| CC1c2cccc(NCC(=O)N(CCN(C)C)Cc3ccccc3C(F)(F)F)c2CCN1CC1CC1 (single isomer, unassigned) [Example 211a, (S)- or (R)-2-((2-(Cyclopropylmethyl)-1-methyl-1,2,3,4-tetrahydroisoquinolin-5-yl)amino)-N-(2-(dimethylamino)ethyl)-N-(2-(trifluoromethyl)benzyl)acetamide] | 0.001 |
| CN(C)CCN(Cc1cncc(Cl)c1)C(=O)CNc1cccc2c1CCN(CC1CC1)C2 [Example 262, N-(5-Chloro-pyridin-3-ylmethyl)-2-(2-cyclopropylmethyl-1,2,3,4-tetrahydro-isoquinolin-5-ylamino)-N-(2-dimethylamino-ethyl)-acetamide] | 0.062 |
| CNCCN(Cc1ccccc1Br)C(=O)CNc1cccc2c1CCN(CC1CC1)C2 [compound 435, N-(2-Bromo-benzyl)-2-(2-cyclopropylmethyl-1,2,3,4-tetrahydro-isoquinolin-5-ylamino)-N-(2-methylamino-ethyl)-acetamide] | 0.007 |
| CNCCN(Cc1ccccc1C(F)(F)F)C(=O)CNc1cccc2c1CCN(C(=O)C(C)(C)C)C2 [compound 390] | 0.083 |
| CN(C)CCN(Cc1ccccc1)C(=O)CNc1cccc2c1CN(C(=O)c1ccccc1)CC2 [compound 195, 2-(2-Benzoyl-1,2,3,4-tetrahydro-isoquinolin-8-ylamino)-N-benzyl-N-(2-dimethylamino-ethyl)-acetamide] | 0.012 |
| COCCN1CCc2c(/C=C/C(=O)N(CCN3CCC(F)(F)CC3)Cc3ncccc3Cl)cccc2C1 [Example 326, (E)-N-(3-Chloro-pyridin-2-ylmethyl)-N-[2-(4,4-difluoro-piperidin-1-yl)-ethyl]-3-[2-(2-methoxy-ethyl)-1,2,3,4-tetrahydro-isoquinolin-5-yl]-acrylamide] | 0.184 |
| CCN1CCc2cccc(NCC(=O)N(CCN(C)C)Cc3ccccc3OC)c2C1 [compound 497] | 0.077 |
| CNCCN(Cc1ncccc1C(F)(F)F)C(=O)CNc1cccc2c1CCN(C(=O)OCC(C)(C)C)C2 [compound 428] | 0.12 |
| CNCCN(Cc1ccccc1C(F)(F)F)C(=O)CNc1cccc2c1CCN(C(=O)CC(C)C)C2 [compound 391, N-(2-Methylamino-ethyl)-2-[2-(3-methyl-butyryl)-1,2,3,4-tetrahydro-isoquinolin-5-ylamino]-N-(2-trifluoromethyl-benzyl)-acetamide] | 0.049 |
| O=C1CC(CN(Cc2ccccc2C(F)(F)F)C(=O)CNc2cccc3c2CCN(CC2CC2)C3)=CC=N1 [Example 78, 2-(2-Cyclopropylmethyl-1,2,3,4-tetrahydro-isoquinolin-5-ylamino)-N-(2-oxo-2,3-dihydro-pyridin-4-ylmethyl)-N-(2-trifluoromethyl-benzyl)-acetamide] | 0.376 |
| CN(C)CCN(Cc1ccccc1C(F)(F)F)C(=O)CNc1cccc2c1C(C)(C)CN(CC1CC1)C2 [Example 91, 2-(2-Cyclopropylmethyl-4,4-dimethyl-1,2,3,4-tetrahydro-isoquinolin-5-ylamino)-N-(2-dimethylamino-ethyl)-N-(2-trifluoromethyl-benzyl)-acetamide] | 0.001 |
| CC(C)(C)OC(=O)N1CCC(N(Cc2ccccc2C(F)(F)F)C(=O)CNc2cccc3c2CCN(CC2CC2)C3)C1 (stereo not shown) [Example 254, 3-[[2-(2-Cyclopropylmethyl-1,2,3,4-tetrahydro-isoquinolin-5-ylamino)-acetyl]-(2-trifluoromethyl-benzyl)-amino]-pyrrolidine-1-carboxylic acid tert-butyl ester] | 0.161 |
| COC(=O)N1CCc2c(cccc2OCC(=O)N(CCN(C)C)Cc2ccccc2)C1 [Example 167, 5-{[Benzyl-(2-dimethylamino-ethyl)-carbamoyl]-methoxy}-3,4-dihydro-1H-isoquinoline-2-carboxylic acid methyl ester] | 0.039 |
| CN(C)CCN(Cc1ccccc1C(F)(F)F)C(=O)CNc1cccc2c1CCN(c1ccccn1)C2 [Example 374, N-(2-Dimethylamino-ethyl)-2-(2-pyridin-2-yl-1,2,3,4-tetrahydro-isoquinolin-5-ylamino)-N-(2-trifluoromethyl-benzyl)-acetamide] | 0.005 |
| O=C(CNc1cccc2c1CN(CC1CC1)CC2)N(CCN1CCCC(F)(F)C1)Cc1ncccc1C(F)(F)F [compound 480, 2-(2-Cyclopropylmethyl-1,2,3,4-tetrahydro-isoquinolin-8-ylamino)-N-[2-(3,3-difluoro-piperidin-1-yl)-ethyl]-N-(3-trifluoromethyl-pyridin-2-ylmethyl)-acetamide] | 0.028 |
| CN(CCN(Cc1ncccc1C(F)(F)F)C(=O)CNc1cccc2c1CN(CC1CC1)CC2)CC(F)(F)F [compound 477] | 0.063 |
| CCC(=O)N1CCc2c(cccc2NCC(=O)N(CCC(C)C)Cc2ccccc2)C1 [Example 12, N-Benzyl-N-(3-methyl-butyl)-2-(2-propionyl-1,2,3,4-tetrahydro-isoquinolin-5-ylamino)-acetamide] | 0.194 |
| C=CCN1CCc2cccc(NCC(=O)N(CCN(C)C)Cc3ccccc3OC(F)(F)F)c2C1 [compound 464, 2-(2-Allyl-1,2,3,4-tetrahydro-isoquinolin-8-ylamino)-N-(2-dimethylamino-ethyl)-N-(2-trifluoromethoxy-benzyl)-acetamide] | 0.036 |
| O=C(CNc1cccc2c1CN(CC1CC1)CC2)N(CCN1CCC(F)(F)CC1)Cc1ncccc1C(F)(F)F [compound 476] | 0.015 |
| CN(C)CCN(Cc1ncccn1)C(=O)CNc1cccc2c1CCN(CC1CC1)C2 [Example 260, 2-(2-Cyclopropylmethyl-1,2,3,4-tetrahydro-isoquinolin-5-ylamino)-N-(2-dimethylamino-ethyl)-N-pyrimidin-2-ylmethyl-acetamide] | 0.125 |
| CCN1CCc2cccc(NCC(=O)N(CCN(C)C)Cc3cnc(N(C)C)nc3)c2C1 [compound 534] | 0.395 |
| CN(C)CCN(Cc1ccccc1C(F)(F)F)C(=O)CNc1cccc2c1CCN(CC1CC1)C2 [Example 76, 2-(2-Cyclopropylmethyl-1,2,3,4-tetrahydro-isoquinolin-5-ylamino)-N-(2-dimethylamino-ethyl)-N-(2-trifluoromethyl-benzyl)-acetamide] | 0.002 |
| O=C(CNc1cccc2c1CCN(CC1CC1)C2)N(Cc1cncs1)Cc1ccccc1C(F)(F)F [Example 247, 2-(2-Cyclopropylmethyl-1,2,3,4-tetrahydro-isoquinolin-5-ylamino)-N-thiazol-5-ylmethyl-N-(2-trifluoromethyl-benzyl)-acetamide] | 0.029 |
| CCN1CCc2cccc(NCC(=O)N(CCN3CCCC3=O)Cc3ccccc3C(F)(F)F)c2C1 [compound 517] | 0.302 |
| CCN1CCc2cccc(NCC(=O)N(Cc3ccccc3)C3CCNC3)c2C1 (racemic) [compound 378] | 0.321 |
